Data from patent US20260308159A1, “BICYCLIC HETEROARYLAMIDES HAVING GPR68 MODULATING ACTIVITY” (RECURSION PHARMACEUTICALS, INC., priority 2023, published 2026).

molecular target: T1, human GPR68 (Homo sapiens, UniProt Q15743); test: GPR68 Biochemical Assay (Promega GloSensor cAMP assay, GPR68 antagonism); assay type: cell-based; conditions: HEK293T cells transiently expressing hGPR68, antagonism of pH 5.5 stimulated cAMP, 15 min, read-out: hGPR68 IC50
T1 construct: encoding full-length human GPR68 (uniprot ID: Q15743); expressed in transfected cells; host or cells: HEK293T
Experimental: GPR68 antagonism was determined using the Promega GloSensor™ CAMP assay (F. I. Wang et al., Methods 2021, S1046-2023 (21) 00249-8). HEK293T cells (obtained from ECACC, Cat 12022001, Lot no. 17E044) were cultured in T175 flasks (Greiner, Cat 660175) in DMEM (Gibco, Cat 11995-065) supplemented with 10% Fetal Bovine Serum (Gibco Cat 16000-044), and 100 u/mL Pen-Strep (Gibco, Cat 15140) at 37° C. and 5% CO2. GPR68 expression was achieved by transient transfection with a mammalian expression plasmid encoding full-length human GPR68 (uniprot ID: Q15743) under control of a CMV promoter. The day before transfection, cell media was aspirated and HEK293T cells were incubated with accutase (Sigma, Cat A6964) for 3-4 minutes 37° C. and 5% CO2 before being manually detached with excess DMEM and trituration. Cell density was determined by automated cell counting (Countess, Invitrogen) and adjusted to 6×10^6 cells/20 mL and transferred to 15 cm dishes (Thermo Fisher, Cat 130183) for overnight incubation at 37° C. and 5% CO2. The next day separate mammalian expression plasmids encoding hGPR68 (4 μg) and Promega GloSensor (8 μg) were diluted to 1 mL in Opti-MEM (Thermo Fisher Scientific, Cat 31985070) and incubated with 30 μL of lipofectamine 3000 (also diluted to 1 mL in Opti-MEM) for 15 minutes at room temperature and subsequently added dropwise to the plated cells. Post transfection cells were then incubated at 37° C. and 5% CO2 for at least 16 hours before transfer to assay plates the following day. Transfer was conducted by washing cells with PBS and incubating with accutase for 3-4 minutes 37° C. and 5% CO2 before being manually detached with excess DMEM and mild trituration. The suspension was then centrifuged at 192 RCF for 4 minutes in a 50 mL centrifuge tube (Greiner, Cat 227261).
Supernatant was removed by aspiration and the cell pellet was resuspended in DMEM+1% dialysed FBS (Gibco, Cat 26400-044) and 100 u/mL Pen-Strep to a cell density of 500 cells/μL. Cells were plated into poly-L-Lysine coated 384-well white assay plates (Corning, Cat 3570) at a final volume of 40 µL and a density of 20,000 cells/well before overnight incubation at 37° C. and 5% CO2. The following day media was manually ejected from the 384-well assay plate and replaced with 10 μL GloSensor substrate (Promega, Cat E1291) prepared in pH 8.0 assay buffer (1×HBSS, 10 mM HEPES, 10 mM MOPS). Cells were incubated with this solution for 60 minutes at room temperature in the dark. Test compounds or an equivalent volume of DMSO (vehicle) were added to compounds plates to create a 9-point, half-log concentration series for each compound with a maximum final assay concentration of 50 μM and a consistent final DMSO concentration of 0.5%. Assay buffer with 0.1% BSA and 0.01% ascorbic acid was prepared at three pHs: pH 8.0, pH 5.5 and pH 4.5. pH 8.0 and 4.5 were added to the compound plate as maximum and minimum effect controls whilst pH 5.5 was added to all compound wells to stimulate GPR68 to a level corresponding to […] of maximal stimulation after addition to the cells already in pH 8.0 (assay acceptance criteria range 70-90%). DMSO/Compound and buffer was added to the plated cells containing the GloSensor substrate and incubated for 15 minutes at room temperature before being read on a microplate reader (BMG PHERAstar, optic module LUM Plus with Gain 3600). Data was exported and analysed in excel and Graphpad prism (version 9). Assay QC acceptance criteria required the maximum and minimum controls to return a Z′≥0.5, the EC80 to be 80%±10% of expected and the reference ligand pIC50 to be within one-half-log unit of its historical IC50. Percent inhibition was calculated using the mean EC80 (pH 5.5) and mean minimum effect control (pH 8.0). Data were plotted as percentage inhibition, average±SEM. IC50, Emax, Emin, Actual max, actual min, R^2 and fit confidence were calculated using Graphpad Prism's sigmoidal dose-response function.

T1 sequence (Q15743 whole entry): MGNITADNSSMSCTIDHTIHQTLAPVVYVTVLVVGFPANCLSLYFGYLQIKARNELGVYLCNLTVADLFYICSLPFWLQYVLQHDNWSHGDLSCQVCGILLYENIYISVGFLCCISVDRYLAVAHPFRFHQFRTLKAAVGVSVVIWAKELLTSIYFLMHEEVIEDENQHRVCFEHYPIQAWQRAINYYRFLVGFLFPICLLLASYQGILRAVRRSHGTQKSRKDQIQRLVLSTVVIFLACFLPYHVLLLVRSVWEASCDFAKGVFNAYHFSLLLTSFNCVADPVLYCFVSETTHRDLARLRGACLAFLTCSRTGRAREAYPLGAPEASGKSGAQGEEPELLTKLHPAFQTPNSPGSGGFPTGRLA

| SMILES | IC50 [nM] |
| --- | --- |
| COCc1nn2c(C(=O)N[C@@H]3CCS(=O)(=O)c4ccccc43)ccnc2c1C(N)=O [Compound 233, N7-[(4R)-1,1-dioxo-3,4-dihydro-2H-thiochromen-4-yl]-2-(methoxymethyl)pyrazolo[1,5-a]pyrimidine-3,7-dicarboxamidfe] | < 50 |
| COCc1nn2c(C(=O)NC3CCOc4ncccc43)ccnc2c1C(N)=O (stereo not shown) [Compound 171, N7-(3,4-dihydro-2H-pyrano[2,3-b]pyridin-4-yl)-2-(methoxymethyl)pyrazolo[1,5-a]pyrimidine-3,7-dicarboxamide] | 50 to 500 |
| COCc1nn2c(C(=O)Nc3cc4ccccc4n3C)ccnc2c1C(N)=O [Compound 118, 2-(methoxymethyl)-N7-(1-methylindol-2-yl)pyrazolo[1,5-a]pyrimidine-3,7-dicarboxamide] | < 50 |
| NC(=O)c1cnn2c(C(=O)NC3Cc4cccc(Cl)c4C3)ccnc12 (stereo not shown) [Compound 4, N7-(4-chloroindan-2-yl)pyrazolo[1,5-a]pyrimidine-3,7-dicarboxamide] | 50 to 500 |
| COCc1nn2c(C(=O)NC(c3ccc(F)cc3)C(F)(F)F)ccnc2c1C(N)=O (stereo not shown) [Compound 125, 2-(methoxymethyl)-N7-[2,2,2-trifluoro-1-(4-fluorophenyl)ethyl]pyrazolo[1,5-a]pyrimidine-3,7-dicarboxamide] | 500 to 5000 |
| COCc1nn2c(C(=O)NCc3ccc4c(c3)CCO4)ccnc2c1C(N)=O [Compound 67, N7-(2,3-dihydrobenzofuran-5-ylmethyl)-2-(methoxymethyl)pyrazolo[1,5-a]pyrimidine-3,7-dicarboxamide] | 50 to 500 |
| NC(=O)c1c(C2CC2)nn2c(C(=O)N[C@H]3CCOc4cc(F)ccc43)ccnc12 [Compound 113, 2-cyclopropyl-N7-[(4S)-7-fluorochroman-4-yl]pyrazolo[1,5-a]pyrimidine-3,7-dicarboxamide] | < 50 |
| Cc1ccc(-c2ccncc2)cc1NC(=O)c1ccnc2c(C(N)=O)cnn12 [Compound 97, N7-[2-methyl-5-(pyridin-4-yl)phenyl]pyrazolo[1,5-a]pyrimidine-3,7-dicarboxamide] | 500 to 5000 |
| COCc1nn2c(C(=O)NC3CCC(F)(F)CC3)cc(C)nc2c1C(N)=O [Compound 240, N7-(4,4-difluorocyclohexyl)-2-(methoxymethyl)-5-methyl-pyrazolo[1,5-a]pyrimidine-3,7-dicarboxamide] | < 50 |
| CN(C)Cc1nn2c(C(=O)NC3Cc4ccccc4C3)ccnc2c1C(N)=O [Compound 29, 2-[(dimethylamino)methyl]-N7-indan-2-yl-pyrazolo[1,5-a]pyrimidine-3,7-dicarboxamide] | 500 to 5000 |
| COCc1nc2c(C(=O)NC3CCC(F)(F)CC3)cc(C)nn2c1C(N)=O [Compound 218, N8-(4,4-difluorocyclohexyl)-2-(methoxymethyl)-6-methyl-imidazo[1,2-b]pyridazine-3,8-dicarboxamide] | 50 to 500 |
| Cc1nn2c(C(=O)NC3Cc4ccccc4C3)ccnc2c1C(N)=O [Compound 46, N7-indan-2-yl-2-methyl-pyrazolo[1,5-a]pyrimidine-3,7-dicarboxamide] | < 50 |
| COCc1nn2c(C(=O)NC3COc4ccc(Br)cc4C3)ccnc2c1C(N)=O (stereo not shown) [Compound 144, N7-(6-bromochroman-3-yl)-2-(methoxymethyl)pyrazolo[1,5-a]pyrimidine-3,7-dicarboxamide] | < 50 |
| NC(=O)c1c(C2CC2)nc2c(C(=O)NC3CC(F)(F)c4ccccc43)ccnn12 (stereo not shown) [Compound 209, 2-cyclopropyl-N8-(3,3-difluoroindan-1-yl)imidazo[1,2-b]pyridazine-3,8-dicarboxamide] | < 50 |
| COCc1nc2c(C(=O)NC3CCC(F)(F)CC3)ccnn2c1C(N)=O [Compound 109, N8-(4,4-difluorocyclohexyl)-2-(methoxymethyl)imidazo[1,2-b]pyridazine-3,8-dicarboxamide] | < 50 |
| COCc1nn2c(C(=O)NC3CC(F)(F)c4ccccc43)ccnc2c1C(N)=O (single isomer, unassigned) [Compound 174, N7-(3,3-difluoroindan-1-yl)-2-(methoxymethyl)pyrazolo[1,5-a]pyrimidine-3,7-dicarboxamide] | < 50 |
| COCc1nc2c(C(=O)N[C@H]3CCS(=O)(=O)c4ccccc43)ccnn2c1C(N)=O [Compound 220, 2-(methoxymethyl)-N8-[(4S)-1,1-dioxo-3,4-dihydro-2H-thiochromen-4-yl]imidazo[1,2-b]pyridazine-3,8-dicarboxamide] | 50 to 500 |
| COCc1nn2c(C(=O)NC3CCC(C)(C)c4ccccc43)ccnc2c1C(N)=O (stereo not shown) [Compound 186, N7-(4,4-dimethyltetralin-1-yl)-2-(methoxymethyl)pyrazolo[1,5-a]pyrimidine-3,7-dicarboxamide] | 500 to 5000 |
| COCc1nc2c(C(=O)NC3CC(F)(F)c4ccccc43)ccnn2c1C(N)=O (stereo not shown) [Compound 107, N8-(3,3-difluoroindan-1-yl)-2-(methoxymethyl)imidazo[1,2-b]pyridazine-3,8-dicarboxamide] | < 50 |
| COCc1nn2c(C(=O)NC3Cc4ccccc4C3(F)F)ccnc2c1C(N)=O (stereo not shown) [Compound 152, N7-(1,1-difluoroindan-2-yl)-2-(methoxymethyl)pyrazolo[1,5-a]pyrimidine-3,7-dicarboxamide] | < 50 |
| C[C@]1(O)C[C@@H](NC(=O)c2ccnc3c(C(N)=O)cnn23)C1 [Compound 8, N7-(cis-3-hydroxy-3-methyl-cyclobutyl)pyrazolo[1,5-a]pyrimidine-3,7-dicarboxamide] | 5000 to 50000 |
| CSCc1nn2c(C(=O)NC3Cc4ccccc4C3)ccnc2c1C(N)=O [Compound 214, N7-indan-2-yl-2-(methylsulfanylmethyl)pyrazolo[1,5-a]pyrimidine-3,7-dicarboxamide] | < 50 |
| COCc1nn2c(C(=O)NC3CCCCC3)ccnc2c1C(N)=O [Compound 76, N7-cyclohexyl-2-(methoxymethyl)pyrazolo[1,5-a]pyrimidine-3,7-dicarboxamide] | 50 to 500 |
| COCc1nn2c(C(=O)NCc3cccc(F)c3)ccnc2c1C(N)=O [Compound 71, N7-[(3-fluorophenyl)methyl]-2-(methoxymethyl)pyrazolo[1,5-a]pyrimidine-3,7-dicarboxamide] | 50 to 500 |

same assay, conditions: hGPR68 IC50, HEK293T cells transiently expressing hGPR68, antagonism of pH 5.5 stimulated cAMP, 15 min

| SMILES | IC50 [nM] |
| --- | --- |
| NC(=O)c1c(C2CC2)nn2c(C(=O)NC3CCC(F)(F)CC3)cnnc12 [Compound 156, 7-cyclopropyl-N4-(4,4-difluorocyclohexyl)pyrazolo[5,1-c][1,2,4]triazine-4,8-dicarboxamide] | 50 to 500 |
| COCc1nn2c(C(=O)Nc3ccc(C(F)(F)F)cn3)ccnc2c1C(N)=O [Compound 59, 2-(methoxymethyl)-N7-[5-(trifluoromethyl)-2-pyridyl]pyrazolo[1,5-a]pyrimidine-3,7-dicarboxamide] | < 50 |
| CC(C)OCc1nn2c(C(=O)NC3CC(F)(F)C3)ccnc2c1C(N)=O [Compound 28, N7-(3,3-difluorocyclobutyl)-2-(isopropoxymethyl)pyrazolo[1,5-a]pyrimidine-3,7-dicarboxamide] | 5000 to 50000 |
| NC(=O)c1c(C2CCCO2)nn2c(C(=O)NC3Cc4ccccc4C3)ccnc12 (stereo not shown) [Compound 44, N7-indan-2-yl-2-tetrahydrofuran-2-yl-pyrazolo[1,5-a]pyrimidine-3,7-dicarboxamide] | 50 to 500 |
